From doi:10.1101/2020.07.01.182642v1 (biorxiv, 2020)

Legend:
Conditions in all cases: binder
[1] = target: RPS6KA1 (Homo sapiens, UniProt Q15418)
[2] = target: TNIK (Homo sapiens, UniProt Q9UKE5)
[3] = target: CAMK2A (Homo sapiens, UniProt Q9UQM7)
[4] = target: STK16 (Homo sapiens, UniProt O75716)
[5] = target: FES (Homo sapiens, UniProt P07332)
[6] = target: STK10 (Homo sapiens, UniProt O94804)
[7] = target: STK39 (Homo sapiens, UniProt Q9UEW8)
[8] = target: T1, BMX (Homo sapiens, UniProt P51813)
T1 sequence (P51813 1-675): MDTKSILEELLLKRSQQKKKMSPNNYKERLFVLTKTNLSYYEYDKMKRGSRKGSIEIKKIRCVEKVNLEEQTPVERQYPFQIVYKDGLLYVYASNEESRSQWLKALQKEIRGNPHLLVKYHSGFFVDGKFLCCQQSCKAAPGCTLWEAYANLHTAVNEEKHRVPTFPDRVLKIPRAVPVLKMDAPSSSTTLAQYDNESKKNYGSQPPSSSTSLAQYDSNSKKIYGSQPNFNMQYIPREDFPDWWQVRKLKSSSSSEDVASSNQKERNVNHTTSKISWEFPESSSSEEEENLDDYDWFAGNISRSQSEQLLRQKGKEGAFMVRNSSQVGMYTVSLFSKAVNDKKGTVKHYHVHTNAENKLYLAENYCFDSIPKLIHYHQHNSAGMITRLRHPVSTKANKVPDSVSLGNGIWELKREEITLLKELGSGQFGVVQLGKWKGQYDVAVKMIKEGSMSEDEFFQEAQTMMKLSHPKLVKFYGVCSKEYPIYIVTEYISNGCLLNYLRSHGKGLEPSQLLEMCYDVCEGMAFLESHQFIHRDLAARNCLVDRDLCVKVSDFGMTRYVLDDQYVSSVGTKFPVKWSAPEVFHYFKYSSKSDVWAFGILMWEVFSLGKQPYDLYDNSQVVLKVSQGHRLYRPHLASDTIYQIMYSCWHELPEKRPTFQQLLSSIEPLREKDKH

[9] = target: MAP2K2 (Homo sapiens, UniProt P36507)
[10] = target: CAMK1G (Homo sapiens, UniProt Q96NX5)
[11] = target: PKN1 (Homo sapiens, UniProt Q16512)
[12] = target: T2, GAK (Homo sapiens, UniProt O14976)
T2 sequence (O14976 1-1311): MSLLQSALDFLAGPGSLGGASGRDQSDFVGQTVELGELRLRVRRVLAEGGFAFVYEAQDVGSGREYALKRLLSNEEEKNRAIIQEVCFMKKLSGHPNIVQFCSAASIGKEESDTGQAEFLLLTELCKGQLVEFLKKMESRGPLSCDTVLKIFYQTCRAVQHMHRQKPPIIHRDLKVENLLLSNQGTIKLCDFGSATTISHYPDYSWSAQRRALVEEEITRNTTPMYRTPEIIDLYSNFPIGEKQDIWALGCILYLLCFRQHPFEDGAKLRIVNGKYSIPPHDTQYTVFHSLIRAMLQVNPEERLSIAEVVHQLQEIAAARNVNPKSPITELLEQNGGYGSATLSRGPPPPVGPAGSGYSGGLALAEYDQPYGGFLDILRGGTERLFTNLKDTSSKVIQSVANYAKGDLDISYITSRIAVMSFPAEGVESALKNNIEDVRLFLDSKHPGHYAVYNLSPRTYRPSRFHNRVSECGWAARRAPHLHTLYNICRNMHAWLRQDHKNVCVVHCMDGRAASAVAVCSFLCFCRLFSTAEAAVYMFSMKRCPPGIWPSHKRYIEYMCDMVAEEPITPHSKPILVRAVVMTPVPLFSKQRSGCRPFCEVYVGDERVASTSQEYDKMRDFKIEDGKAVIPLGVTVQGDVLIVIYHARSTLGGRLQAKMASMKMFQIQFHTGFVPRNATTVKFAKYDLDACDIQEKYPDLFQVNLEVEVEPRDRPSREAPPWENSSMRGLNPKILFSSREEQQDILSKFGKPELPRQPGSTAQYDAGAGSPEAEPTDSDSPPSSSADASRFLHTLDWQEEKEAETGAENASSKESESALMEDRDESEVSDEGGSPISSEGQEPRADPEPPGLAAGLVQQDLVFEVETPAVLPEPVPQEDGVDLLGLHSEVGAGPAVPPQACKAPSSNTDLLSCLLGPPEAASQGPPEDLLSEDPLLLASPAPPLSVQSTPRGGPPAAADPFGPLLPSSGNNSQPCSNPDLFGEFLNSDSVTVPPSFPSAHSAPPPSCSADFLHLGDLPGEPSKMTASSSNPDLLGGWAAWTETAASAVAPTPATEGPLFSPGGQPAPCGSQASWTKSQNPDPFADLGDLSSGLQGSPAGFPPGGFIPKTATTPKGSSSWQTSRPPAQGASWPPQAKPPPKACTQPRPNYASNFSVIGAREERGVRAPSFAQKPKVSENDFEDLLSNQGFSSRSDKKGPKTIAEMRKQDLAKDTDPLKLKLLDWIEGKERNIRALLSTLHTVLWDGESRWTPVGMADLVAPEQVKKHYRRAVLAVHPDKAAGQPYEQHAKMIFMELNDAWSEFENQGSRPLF

Sequence of STK16 (O75716 whole entry): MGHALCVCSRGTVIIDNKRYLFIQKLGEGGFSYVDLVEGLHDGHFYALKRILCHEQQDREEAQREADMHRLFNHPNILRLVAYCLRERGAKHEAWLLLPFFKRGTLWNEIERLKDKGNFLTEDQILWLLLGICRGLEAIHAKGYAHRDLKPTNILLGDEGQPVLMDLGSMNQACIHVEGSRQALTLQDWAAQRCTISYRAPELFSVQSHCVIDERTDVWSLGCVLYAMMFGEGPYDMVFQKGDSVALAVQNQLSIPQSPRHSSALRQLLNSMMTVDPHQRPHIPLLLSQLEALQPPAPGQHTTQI
Sequence of STK10 (O94804 whole entry): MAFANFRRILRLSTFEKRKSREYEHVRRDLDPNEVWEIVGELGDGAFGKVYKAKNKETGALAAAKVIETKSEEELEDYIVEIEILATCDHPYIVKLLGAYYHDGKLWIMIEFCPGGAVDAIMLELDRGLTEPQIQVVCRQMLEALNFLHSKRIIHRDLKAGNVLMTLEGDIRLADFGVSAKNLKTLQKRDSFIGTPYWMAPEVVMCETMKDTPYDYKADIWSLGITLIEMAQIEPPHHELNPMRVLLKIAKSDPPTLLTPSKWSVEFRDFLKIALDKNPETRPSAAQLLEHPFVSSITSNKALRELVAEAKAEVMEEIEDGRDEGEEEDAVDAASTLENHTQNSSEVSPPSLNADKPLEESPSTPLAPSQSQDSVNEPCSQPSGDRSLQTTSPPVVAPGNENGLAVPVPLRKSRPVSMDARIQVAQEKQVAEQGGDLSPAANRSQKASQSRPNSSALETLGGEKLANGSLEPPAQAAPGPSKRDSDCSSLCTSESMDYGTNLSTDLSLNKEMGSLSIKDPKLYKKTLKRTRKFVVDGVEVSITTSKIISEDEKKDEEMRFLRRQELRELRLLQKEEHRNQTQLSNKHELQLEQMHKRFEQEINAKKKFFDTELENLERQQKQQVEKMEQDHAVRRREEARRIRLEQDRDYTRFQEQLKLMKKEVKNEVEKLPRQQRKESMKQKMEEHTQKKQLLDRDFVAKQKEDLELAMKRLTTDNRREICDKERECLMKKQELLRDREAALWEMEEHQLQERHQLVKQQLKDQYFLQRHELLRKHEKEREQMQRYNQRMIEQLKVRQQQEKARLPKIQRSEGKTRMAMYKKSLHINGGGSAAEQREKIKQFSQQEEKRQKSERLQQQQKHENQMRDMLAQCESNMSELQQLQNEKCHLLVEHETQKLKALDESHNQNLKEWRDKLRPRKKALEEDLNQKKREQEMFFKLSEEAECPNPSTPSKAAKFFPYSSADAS
Sequence of TNIK (Q9UKE5 whole entry): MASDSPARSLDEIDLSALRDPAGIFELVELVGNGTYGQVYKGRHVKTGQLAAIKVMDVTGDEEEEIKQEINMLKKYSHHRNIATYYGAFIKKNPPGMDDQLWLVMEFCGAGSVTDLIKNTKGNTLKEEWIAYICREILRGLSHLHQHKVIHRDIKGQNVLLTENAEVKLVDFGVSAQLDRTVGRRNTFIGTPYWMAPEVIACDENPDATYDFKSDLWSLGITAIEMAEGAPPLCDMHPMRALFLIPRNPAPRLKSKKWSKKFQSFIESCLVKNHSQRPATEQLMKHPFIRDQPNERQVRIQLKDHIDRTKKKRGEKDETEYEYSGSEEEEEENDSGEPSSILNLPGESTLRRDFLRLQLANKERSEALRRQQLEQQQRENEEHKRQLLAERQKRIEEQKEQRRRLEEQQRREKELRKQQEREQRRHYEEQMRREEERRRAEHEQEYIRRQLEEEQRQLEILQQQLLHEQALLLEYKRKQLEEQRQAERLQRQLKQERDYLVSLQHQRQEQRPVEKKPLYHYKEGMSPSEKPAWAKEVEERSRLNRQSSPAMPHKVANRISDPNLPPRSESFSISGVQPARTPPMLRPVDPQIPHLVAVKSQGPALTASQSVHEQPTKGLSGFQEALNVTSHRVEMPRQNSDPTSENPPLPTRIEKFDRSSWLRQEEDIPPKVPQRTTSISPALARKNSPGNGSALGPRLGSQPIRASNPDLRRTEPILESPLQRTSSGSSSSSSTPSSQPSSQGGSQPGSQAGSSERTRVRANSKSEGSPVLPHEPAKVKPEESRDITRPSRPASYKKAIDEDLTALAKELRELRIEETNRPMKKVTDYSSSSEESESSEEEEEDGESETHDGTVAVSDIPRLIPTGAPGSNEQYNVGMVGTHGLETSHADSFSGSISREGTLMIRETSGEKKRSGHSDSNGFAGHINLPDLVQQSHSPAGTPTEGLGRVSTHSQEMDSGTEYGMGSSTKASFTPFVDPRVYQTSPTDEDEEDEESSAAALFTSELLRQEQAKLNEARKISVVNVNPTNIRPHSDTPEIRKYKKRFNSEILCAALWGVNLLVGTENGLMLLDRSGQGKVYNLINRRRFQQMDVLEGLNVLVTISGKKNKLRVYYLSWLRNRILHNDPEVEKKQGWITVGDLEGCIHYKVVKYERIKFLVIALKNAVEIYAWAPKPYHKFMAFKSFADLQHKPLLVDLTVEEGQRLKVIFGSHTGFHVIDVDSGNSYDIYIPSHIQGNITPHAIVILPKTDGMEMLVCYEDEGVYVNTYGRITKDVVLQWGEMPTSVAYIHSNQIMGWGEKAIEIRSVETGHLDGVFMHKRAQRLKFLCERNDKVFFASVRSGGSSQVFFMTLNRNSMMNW
Sequence of PKN1 (Q16512 whole entry): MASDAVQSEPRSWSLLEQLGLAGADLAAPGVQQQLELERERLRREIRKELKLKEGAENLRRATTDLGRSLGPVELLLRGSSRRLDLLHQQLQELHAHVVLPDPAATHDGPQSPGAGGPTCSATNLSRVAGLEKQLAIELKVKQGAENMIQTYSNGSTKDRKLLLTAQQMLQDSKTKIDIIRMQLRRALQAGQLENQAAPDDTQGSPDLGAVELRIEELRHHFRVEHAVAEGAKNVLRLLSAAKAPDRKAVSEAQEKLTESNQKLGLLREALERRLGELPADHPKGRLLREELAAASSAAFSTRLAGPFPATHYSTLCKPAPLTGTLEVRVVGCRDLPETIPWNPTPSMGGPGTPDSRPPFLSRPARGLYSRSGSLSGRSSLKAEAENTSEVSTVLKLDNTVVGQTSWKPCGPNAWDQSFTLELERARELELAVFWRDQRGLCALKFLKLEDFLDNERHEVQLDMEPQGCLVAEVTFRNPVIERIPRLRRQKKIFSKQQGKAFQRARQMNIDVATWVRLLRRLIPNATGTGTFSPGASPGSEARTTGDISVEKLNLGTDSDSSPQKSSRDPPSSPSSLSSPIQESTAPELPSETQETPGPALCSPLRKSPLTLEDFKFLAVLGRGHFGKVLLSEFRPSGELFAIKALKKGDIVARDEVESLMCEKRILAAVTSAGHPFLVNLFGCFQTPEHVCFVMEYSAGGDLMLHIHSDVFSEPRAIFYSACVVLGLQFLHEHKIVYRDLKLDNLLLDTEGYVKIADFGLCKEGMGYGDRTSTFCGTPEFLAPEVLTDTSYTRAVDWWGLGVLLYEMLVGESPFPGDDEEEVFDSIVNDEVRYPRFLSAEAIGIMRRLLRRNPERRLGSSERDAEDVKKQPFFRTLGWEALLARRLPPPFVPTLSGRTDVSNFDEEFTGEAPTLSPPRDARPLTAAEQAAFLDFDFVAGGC
Sequence of MAP2K2 (P36507 whole entry): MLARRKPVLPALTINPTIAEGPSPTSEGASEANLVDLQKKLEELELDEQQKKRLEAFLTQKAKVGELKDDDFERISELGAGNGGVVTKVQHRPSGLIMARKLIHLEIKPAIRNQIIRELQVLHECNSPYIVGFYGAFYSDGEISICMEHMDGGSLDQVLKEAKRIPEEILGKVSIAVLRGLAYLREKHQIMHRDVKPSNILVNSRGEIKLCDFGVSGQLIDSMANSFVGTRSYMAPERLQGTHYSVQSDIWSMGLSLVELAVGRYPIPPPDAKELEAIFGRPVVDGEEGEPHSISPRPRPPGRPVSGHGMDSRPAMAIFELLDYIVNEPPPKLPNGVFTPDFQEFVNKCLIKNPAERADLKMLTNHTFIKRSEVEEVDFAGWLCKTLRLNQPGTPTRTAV
Sequence of CAMK2A (Q9UQM7 whole entry): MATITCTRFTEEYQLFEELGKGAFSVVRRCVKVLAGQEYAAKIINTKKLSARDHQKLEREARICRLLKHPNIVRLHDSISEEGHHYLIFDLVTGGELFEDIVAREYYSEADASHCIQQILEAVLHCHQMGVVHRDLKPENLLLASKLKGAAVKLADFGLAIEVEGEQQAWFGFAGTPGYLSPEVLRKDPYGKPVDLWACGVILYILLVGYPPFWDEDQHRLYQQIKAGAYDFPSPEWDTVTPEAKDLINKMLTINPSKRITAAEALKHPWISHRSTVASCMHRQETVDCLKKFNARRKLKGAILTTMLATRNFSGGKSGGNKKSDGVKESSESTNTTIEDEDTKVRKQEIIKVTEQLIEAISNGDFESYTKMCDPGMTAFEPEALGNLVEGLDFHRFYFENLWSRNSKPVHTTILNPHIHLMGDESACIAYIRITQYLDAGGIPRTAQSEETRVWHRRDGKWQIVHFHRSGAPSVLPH
Sequence of CAMK1G (Q96NX5 whole entry): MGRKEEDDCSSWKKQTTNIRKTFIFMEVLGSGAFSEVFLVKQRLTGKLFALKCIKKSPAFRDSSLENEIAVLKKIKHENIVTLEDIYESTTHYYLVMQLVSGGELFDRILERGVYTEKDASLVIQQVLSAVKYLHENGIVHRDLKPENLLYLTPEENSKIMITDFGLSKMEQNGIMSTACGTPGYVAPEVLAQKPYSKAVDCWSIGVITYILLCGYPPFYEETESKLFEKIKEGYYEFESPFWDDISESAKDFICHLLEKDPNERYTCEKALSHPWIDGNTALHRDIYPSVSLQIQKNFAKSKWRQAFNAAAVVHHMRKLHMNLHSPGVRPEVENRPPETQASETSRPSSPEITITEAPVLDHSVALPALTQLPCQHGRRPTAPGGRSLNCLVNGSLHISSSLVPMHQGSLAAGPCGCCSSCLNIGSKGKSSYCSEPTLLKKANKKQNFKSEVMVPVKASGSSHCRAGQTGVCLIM

`CC(=O)c1cccc(-c2cnc3ccc(NCC4CC4)nn23)c1` [compound 1, K00135] was tested, and the “ΔTm inhibitor 1” value [1] was 5.2 °C, the “ΔTm inhibitor 1” value [2] was 1.2 °C and the “ΔTm inhibitor 1” value [3] was 0.5 °C. The “ΔTm inhibitor 1” value [4] was 2.3 °C, the “ΔTm inhibitor 1” value [5] was 0.6 °C and the “ΔTm inhibitor 1” value [6] was 3.3 °C. For the same molecule, the “ΔTm inhibitor 1” value [7] was 0.8 °C, the “ΔTm inhibitor 1” value [8] was 0.4 °C and the “ΔTm inhibitor 1” value [9] was 2 °C. For the same molecule, the “ΔTm inhibitor 1” value [10] was 0.6 °C, the “ΔTm inhibitor 1” value [11] was 1.7 °C and the “ΔTm inhibitor 1” value [12] was 7.3 °C.

With `CCN1/C(=C/C(C)=O)Sc2ccc(OC)cc21` [compound 2, TG003] the “ΔTm inhibitor 2” value [1] was 0.6 °C, the “ΔTm inhibitor 2” value [2] was 0.1 °C and the “ΔTm inhibitor 2” value [3] was -0.1 °C. For the same molecule, the “ΔTm inhibitor 2” value [4] was 0.2 °C, the “ΔTm inhibitor 2” value [5] was -0.1 °C and the “ΔTm inhibitor 2” value [6] was 0.8 °C. The “ΔTm inhibitor 2” value [7] was 0.5 °C, the “ΔTm inhibitor 2” value [8] was -0.1 °C and the “ΔTm inhibitor 2” value [9] was 0.5 °C. The “ΔTm inhibitor 2” value [10] was -0.1 °C, the “ΔTm inhibitor 2” value [11] was -0.5 °C and the “ΔTm inhibitor 2” value [12] was 0.2 °C.

For `Nc1nccc(-c2ccc3noc(-c4ccc(Cl)cc4)c3c2)n1` [compound 4, K00972], the “ΔTm inhibitor 4” value [1] was 0.6 °C, the “ΔTm inhibitor 4” value [2] was 1.2 °C and the “ΔTm inhibitor 4” value [3] was 0.1 °C. For the same molecule, the “ΔTm inhibitor 4” value [4] was 3.5 °C, the “ΔTm inhibitor 4” value [5] was 0.3 °C and the “ΔTm inhibitor 4” value [6] was 1.9 °C. For the same molecule, the “ΔTm inhibitor 4” value [7] was 0.0 °C, the “ΔTm inhibitor 4” value [8] was 0.4 °C and the “ΔTm inhibitor 4” value [9] was 0.1 °C. The “ΔTm inhibitor 4” value [10] was 0.3 °C, the “ΔTm inhibitor 4” value [11] was 0.4 °C and the “ΔTm inhibitor 4” value [12] was 3.3 °C.
